Data as given in US20120046273A1, “COMPOUNDS AND COMPOSITIONS FOR COGNITION-ENHANCEMENT, METHODS OF MAKING, AND METHODS OF TREATING” (MITHRIDION, INC., priority 2009, published 2012).

What was measured:
[1] = Brain concentrations in rats after oral gavage; type: in vivo, rat; details: rat, 10 mg/kg po, relative to MCD-386
Method: Long-Evans Hooded rats (Charles River: male, 250-350 g) were dosed with solutions of test compounds in PBS by oral gavage. At the desired time after dosing, the animals were anesthetized with isoflurane, and then euthanized by cervical dislocation. Blood was obtained by cardiac puncture, transferred to a 1.5 mL microcentrifuge tube containing 15U Heparin, and the plasma recovered after centrifugation. Brains were dissected, weighed, immediately chilled to 4° C., and homogenized using a PowerGen 125 homogenizer in five volumes of ice-cold 2% formic acid. Proteins were precipitated from plasma and brain homogenate with two and five volumes respectively of ice-cold 2% formic acid and clarified by centrifugation. The supernatant was ultra-filtered by centrifugation through a 3K MWCO spin column (Pall Life Sciences), following the manufacturer's instructions. The concentration of compound in the ultra-filtrate was subjected to reverse-phase liquid chromatography using a 150×2.1 mm Agilent C8 reverse-phase column on a Shimadzu Prominence LC, eluting the compounds with a gradient of 2% to 50% of acetonitrile+0.1% formic acid for compound MI-50,382, or an isocratic flow of 2% acetonitrile+0.1% formic acid for the rest of the compounds listed. The concentration of the compound in the column effluent was measured using an Applied Biosystems API-3200 triple quadrupole mass spectrometer equipped with an electrospray sample injection system. The counts of the characteristic parent and product ions of each test compound were converted to concentration units by comparison with a standard calibration curve.

[2] = Metabolites in serum and urine of dosed rats (LC-MS); type: in vivo; details: rat serum/plasma or urine, oral dosing
Method: Oxadiazoles disclosed herein as well as other oxadiazoles were investigated to determine the formation of metabolites. Animals were dosed, blood taken, serum prepared, serum proteins precipitated and ultrafiltrates prepared as described in Example 6. In separate experiments, urine was collected from rats for 16-24 hours after dosing, using standard metabolic cages. The urine container and collected urine were maintained at 4° C. Urine was lyophilized, taken back into water. The ultrafiltrate was prepared by adding formic acid to a final concentration of 1% to the urine samples, then filtered through a 0.2 um nylon membrane. The ultrafiltrate was subjected to LC-MS analysis. Instead of measuring the product ions in Q3, manual Q1 scans of the liquid chromatograph were undertaken, seeking parent ions of potential metabolites of the compounds. The criteria for identifying metabolites were as follows: (1) the ion should be present in the sera or urines of dosed rats, but not in sera or urines from non-dosed rats (2) the ion should be identifiable as a metabolic derivative of the dosed compound (e.g. loss of a functional chemical moiety, addition of a hydroxyl group or a glucuronic acid moiety, etc). Metabolites were determined not to be present if no compound meeting the above criteria could be detected in serum or urine.

[3] = Plasma concentration in rats, iontophoresis patch versus oral gavage; type: in vivo; details: Long Evans Hooded, rat
Text: Two patches were made up, consisting (in order from the outer layer to the skin contacting surface, respectively): adhesive tape (Transpore, 27 mm wide, 3M), circular stainless steel electrodes (22 mm dia) with a central hole for a stainless steel machine screw to which the electrode wire was attached, and 2 layers of 3MM CHR filter paper (Cat #3030-861, Whatman International, Ltd).
The mid-dorsal area of a Long Evans Hooded rat (approximate weight, 320 grams), surgically prepared with a jugular vein catheter (Charles River), was shaved and the skin was then cleaned using an Electrode Prep Pad (Professional Disposables, Inc, Cat #B59800). […]
Blood (400 μl) was withdrawn from the catheters in each rat every 30 minutes, transferred to 1.5 ml centrifuge tubes containing heparin (15 units/tube), and the plasma was separated by centrifugation from the cellular components. The plasma samples were maintained at 4 deg C. until analyzed. […]
The ultra-filtrates were subjected to reverse-phase liquid chromatography using a 150×2.1 mm Agilent C8 reverse-phase column on a Shimadzu Prominence LC, eluting the MCD-386 with an isocratic flow of 2% acetonitrile+0.1% formic acid. The concentration of MCD-386 in the column effluent was measured using an Applied Biosystems API-3200 triple quadrupole mass spectrometer equipped with a Turbo V source (electrospray sample injection) system. […]

[4] = system: apomorphine induced climbing; assay: Apomorphine induced climbing model of psychosis; type: in vivo, CD-I mice; details: mice, sc
Method: As described in Costall et. al. European Journal of Pharmacology 1978, 50, 39. individual CD-I mice, 1-2 months old, were placed in a cylindrical wire mesh cage (13.2 cm high×13.2 cm diameter) constructed of steel wire 1 mm thick spaced at 1.2 cm^2. Cylinders were placed in a standard OptiMICE mouse cage (29×32×9×29 cm wide and 14 cm high) with adequate wood chip bedding provided. Observations of climbing (defined as 3 or more paws off the ground) were carried out every 5 minutes at a duration of 1 minute for 30 minutes. Animals were injected subcutaneously under isoflurane anesthesia with test compounds, reference compounds, which included clozapine, haloperidol, olanzapine and xanomeline, or PBS as a control. This was followed 5 minutes later by 2 mg/kg apomorphine hydrochloride. All drugs were dissolved in PBS or a mixture of (by volume) 96% PBS and 4% hydroxypropyl-beta-cyclodextrin, and dosed at a rate of 5 ml per kilogram of body weight. Following injections, animals were replaced in the mesh cages and observed for climbing (defined as 3 or more paws off the ground) every 5 minutes for a duration of 1 minute for 60 minutes after dosing.

[5] = Brain/plasma concentration ratio after oral dosing to rats; details: rat

- Brain Cmax (10 mg/kg po) MCD-386 = 1.00 [1]: 1.00
- Presence of metabolites (10 mg/kg po) [2]: Yes
- concentration at 30 minutes ([3]; other: iontophoresis patch (transdermal), 3.2 mg/kg, iontophoresis patch, dose 3.2 mg/kg): ~850 nM
- concentration at 30 minutes ([3]; po, 10 mg/kg, oral gavage): 911 nM
- PAMPA (? × 106) (PAMPA test): 0.05 ? × 106
- Kp at 1 hour [5]: 0.07 to 0.13
Compound: CCc1noc(C2CN=CNC2)n1 (stereo not shown) [Compound 18, 3-ethyl-5-(1,4,5,6-tetrahydropyrimidin-5-yl)-1,2,4-oxadiazole]
- activity in the apomorphine induced climbing model [4]: inactive
